Data published in US8592456B2 (4SC Discovery GmbH, priority 2011, dated 2013).
Like-named read-outs stand apart in the source and are kept apart here.

System: PBMC (T cell proliferation)
Test: T cell proliferation assay, PHA-stimulated human PBMC (BrdU ELISA)
Format: cell-based
Experimental: Cell proliferation was analysed using the BrdU based cell proliferation ELISA from Roche (Mannheim, Germany) according to the manufacturer's instructions.
T Cell Proliferation Assay
Peripheral blood mononuclear cells (PBMC) from healthy human donors were isolated by centrifugation over Ficoll-Hypaque (Sigma-Aldrich, Germany) according to manufacturer's instructions. Purified PBMC were washed twice with PBS and resuspended in RPMI1640 culture medium supplemented with 10% dialyzed heat inactivated fetal calf serum, 1.5 mM L-glutamine, 100 U penicillin/ml, and […] (all from PAN Biotech, Aidenbach, Germany). For stimulation, PBMC were seeded at 1×10^5 cells/well, activated with 2 μg/ml phytohaemagglutinin (PHA, Sigma) and incubated with the test compound. After 48 hours proliferation was measured using the BrdU based cell proliferation ELISA from Roche (Mannheim, Germany) according to the manual.

[1] = human PBMC, 2 μg/ml PHA, 48 hours, BrdU, read-out: D: IC50 (Tcell proliferation)
[2] = PHA-stimulated human PBMC, 48 hours, BrdU, column D, activity classes 1-4, read-out: IC50 (Tcell proliferation)

## COC(=O)c1c(-c2ccc(Cl)cc2)noc1-c1cnn(-c2cccc(F)c2)c1C(F)(F)F [Example 73, methyl 3-(4-chlorophenyl)-5-(1-(3-fluorophenyl)-5-(trifluoromethyl)-1H-pyrazol-4-yl)isoxazole-4-carboxylate]
[1]
  IC50: 1000 to 10000 nM

## CO/C(=N\c1c(-c2c(F)cccc2Cl)noc1-c1cnn(-c2cccc(F)c2)c1C(F)(F)F)C(F)(F)F [Example 136, (Z)-methyl N-(3-(2-chloro-6-fluorophenyl)-5-(1-(3-fluorophenyl)-5-(trifluoromethyl)-1H-pyrazol-4-yl)isoxazol-4-yl)-2,2,2-trifluoroacetimidate]
[1]
  IC50: 100 to 1000 nM

## CCOC(=O)c1c(-c2onc(-c3c(F)cccc3Cl)c2C(=O)OC)cnn1CC(C)C [Example 29]
[1]
  IC50: 1000 to 10000 nM

## CCOC(=O)c1c(-c2c(Cl)cncc2Cl)noc1-c1cnn(-c2ccccc2F)c1C(F)(F)F [Example B-9, ethyl 3-(3,5-dichloropyridin-4-yl)-5-(1-(2-fluorophenyl)-5-(trifluoromethyl)-1H-pyrazol-4-yl)isoxazole-4-carboxylate]
[1]
  IC50: 10 to 100 nM

## CCOC(=O)c1c(-c2onc(-c3c(F)cccc3Cl)c2C(=O)OC)cnn1-c1ccc(F)cc1 [Example 26, methyl 3-(2-chloro-6-fluorophenyl)-5-(5-(ethoxycarbonyl)-1-(4-fluorophenyl)-1H-pyrazol-4-yl)isoxazole-4-carboxylate]
[1]
  IC50: 1000 to 10000 nM

## CCOC(=O)c1c(-c2onc(-c3c(F)cccc3Cl)c2C(=O)OC)cnn1-c1cccc(F)c1 [Example 8, methyl 3-(2-chloro-6-fluorophenyl)-5-(5-(ethoxycarbonyl)-1-(3-fluorophenyl)-1H-pyrazol-4-yl)isoxazole-4-carboxylate]
[1]
  IC50: 100 to 1000 nM

## COC(=O)c1c(-c2c(F)cccc2Cl)noc1-c1cnn(-c2c(Cl)cccc2Cl)c1C(F)(F)F [Example 70, methyl 3-(2-chloro-6-fluorophenyl)-5-(1-(2,6-dichlorophenyl)-5-(trifluoromethyl)-1H-pyrazol-4-yl)isoxazole-4-carboxylate]
[1]
  IC50: 100 to 1000 nM

## Cc1nnc(-c2c(-c3c(F)cccc3Cl)noc2-c2cnn(-c3cccc(Cl)c3)c2C(F)(F)F)o1 [IB-4, 2-(3-(2-chloro-6-fluorophenyl)-5-(1-(3-chlorophenyl)-5-(trifluoromethyl)-1H-pyrazol-4-yl)isoxazol-4-yl)-5-methyl-1,3,4-oxadiazole]
[2]
  IC50: < 10 nM

## COC(=O)c1c(-c2c(F)cccc2Cl)noc1-c1cnn(-c2ncc(C(F)(F)F)cc2Cl)c1C(F)(F)F [Example 87]
[1]
  IC50: 1000 to 10000 nM

## Oc1csc(-c2c(-c3c(F)cccc3Cl)noc2-c2cnn(-c3cccc(F)c3)c2C(F)(F)F)n1 [Example I-9, 2-(3-(2-chloro-6-fluorophenyl)-5-(1-(3-fluorophenyl)-5-(trifluoromethyl)-1H-pyrazol-4-yl)isoxazol-4-yl)thiazol-4-ol]
Homo sapiens, 48 h, read-out: IC50 (Tcell proliferation)
  IC50: 100 to 1000 nM

## Cc1nnc(-c2c(-c3c(F)cccc3Cl)noc2-c2cnn(-c3ccncc3)c2C(F)(F)F)o1 [IB-19, 2-(3-(2-chloro-6-fluorophenyl)-5-(1-(pyridin-4-yl)-5-(trifluoromethyl)-1H-pyrazol-4-yl)isoxazol-4-yl)-5-methyl-1,3,4-oxadiazole]
[2]
  IC50: 100 to 1000 nM

## COC(=O)c1c(-c2c(F)cccc2Cl)noc1-c1cnn(-c2c(F)c(F)cc(F)c2F)c1C(F)(F)F [Example 47, methyl 3-(2-chloro-6-fluorophenyl)-5-(1-(2,3,5,6-tetrafluorophenyl)-5-(trifluoromethyl)-1H-pyrazol-4-yl)isoxale-4-carboxylate]
[1]
  IC50: 100 to 1000 nM

## COC(=O)c1c(-c2ccccc2Cl)noc1-c1cnn(-c2cccc(F)c2)c1C(F)(F)F [Example 95, methyl 3-(2-chlorophenyl)-5-(1-(3-fluorophenyl)-5-(trifluoromethyl)-1H-pyrazol-4-yl)isoxazole-4-carboxylate]
[1]
  IC50: < 10 nM

## Fc1cccc(-n2ncc(-c3onc(-c4c(F)cccc4Cl)c3Br)c2C(F)(F)F)c1 [Example 137, 4-bromo-3-(2-chloro-6-fluorophenyl)-5-(1-(3-fluorophenyl)-5-(trifluoromethyl)-1H-pyrazol-4-yl)isoxazole]
[1]
  IC50: 10 to 100 nM

## CCOC(=O)c1c(-c2c(F)cccc2Cl)noc1-c1cnn(CC2CCCO2)c1C(F)(F)F (stereo not drawn) [Example B-96, ethyl 3-(2-chloro-6-fluorophenyl)-5-(1-((tetrahydrofuran-2-yl)methyl)-5-(trifluoromethyl)-1H-pyrazol-4-yl)isoxazole-4-carboxylate]
[1]
  IC50: 10 to 100 nM

## COC(=O)c1c(-c2c(F)cccc2Cl)noc1-c1cnn(-c2ccccc2F)c1 [Example 89, Methyl 3-(2-chloro-6-fluorophenyl)-5-[1-(2-fluorophenyl)-1H-pyrazol-4-yl]isoxazole-4-carboxylate]
[1]
  IC50: 100 to 1000 nM

## Cc1nnc(-c2c(-c3c(F)cccc3Cl)noc2-c2cnn(-c3cccnc3)c2C(F)(F)F)o1 [IB-10, 2-(3-(2-chloro-6-fluorophenyl)-5-(1-(pyridin-3-yl)-5-(trifluoromethyl)-1H-pyrazol-4-yl)isoxazol-4-yl)-5-methyl-1,3,4-oxadiazole]
[2]
  IC50: 100 to 1000 nM

## O=C(NC1CCCCC1)c1c(-c2c(F)cccc2Cl)noc1-c1cnn(-c2ccccc2F)c1C(F)(F)F [Example 18, 3-(2-chloro-6-fluorophenyl)-N-cyclohexyl-5-(1-(2-fluorophenyl)-5-(trifluoromethyl)-1H-pyrazol-4-yl)isoxazole-4-carboxamide]
[1]
  IC50: 1000 to 10000 nM

## CC(=O)Nc1c(-c2c(F)cccc2Cl)noc1-c1cnn(-c2cccc(Cl)c2)c1C(F)(F)F [Example B-39, N-(3-(2-chloro-6-fluorophenyl)-5-(1-(3-chlorophenyl)-5-(trifluoromethyl)-1H-pyrazol-4-yl)-isoxazol-4-yl)acetamide]
[1]
  IC50: 1000 to 10000 nM

## COc1cccc(Cl)c1-c1noc(-c2cnn(-c3cccnc3)c2C(F)(F)F)c1-c1cnco1 [IB-31, 3-(2-chloro-6-methoxyphenyl)-4-(oxazol-5-yl)-5-(1-(pyridin-3-yl)-5-(trifluoromethyl)-1H-pyrazol-4-yl)isoxazole]
[2]
  IC50: 1000 to 10000 nM

## CON(C)C(=O)c1c(-c2c(F)cccc2Cl)noc1-c1cnn(-c2ccccc2F)c1C(F)(F)F [Example B-53, 3-(2-chloro-6-fluorophenyl)-5-(1-(2-fluorophenyl)-5-(trifluoromethyl)-1H-pyrazol-4-yl)-N-methoxy-N-methylisoxazole-4-carboxamide]
[1]
  IC50: 100 to 1000 nM

## Fc1cccc(-n2ncc(-c3onc(-c4c(F)cccc4Cl)c3-c3ccsc3)c2C(F)(F)F)c1 [Example I-16, 3-(2-chloro-6-fluorophenyl)-5-(1-(3-fluorophenyl)-5-(trifluoromethyl)-1H-pyrazol-4-yl)-4-(thiophen-3-yl)isoxazole]
[2]
  IC50: < 10 nM

## COC(=O)c1c(-c2c(F)cccc2Cl)noc1-c1cnn(C(C)C)c1C(F)(F)F [Example 66, methyl 3-(2-chloro-6-fluorophenyl)-5-(1-isopropyl-5-(trifluoromethyl)-1H-pyrazol-4-yl)isoxazole-4-carboxylate]
[1]
  IC50: 1000 to 10000 nM

## COC(=O)c1c(-c2c(F)cccc2Cl)noc1-c1cnn(-c2ccc(S(C)(=O)=O)cc2)c1C(F)(F)F [Example 85, methyl 3-(2-chloro-6-fluorophenyl)-5-(1-(4-(methylsulfonyl)phenyl)-5-(trifluoromethyl)-1H-pyrazol-4-yl)isoxazole-4-carboxylate]
[1]
  IC50: 1000 to 10000 nM
